A short description of the series: Release of model compounds from chitosan-calcium phosphate composites in PBS. To be noted: chitosan-TCP composite, PBS pH 7.4, 37° C., FIG. 12.

Take `O=c1[nH]cc(F)c(=O)[nH]1` [5-FU, 5-fluorouracil]: the “time over which the model compound was released from the composite” value is not above 10 h.

The values above are taken from US6417247B1, “Polymer/ceramic composites” (priority 1997, dated 2002).
